Reference: patent publication US20250263370A1 (Tay Therapeutics Limited, priority 2022, published 2025)
Where “and” joins values, the source holds several entries; their conditions need not be identical. Equal entries are not always repeated. Entries after “also recorded” stand apart in the source; their conditions may differ.

Test system: collagen-induced arthritis
Assay: Collagen-induced arthritis (CIA) model in rats: body weight, paw volume, clinical scores, clinical observations
Settings: CIA rats
[1] = 3 mg/kg twice daily P.O. (group 5)
[2] = 3 mg/kg twice daily P.O. (group 5), day 13
[3] = 3 mg/kg twice daily P.O. (group 5), day 14
[4] = 3 mg/kg twice daily P.O. (group 5), days 18, 19 and 21
[5] = 10 mg/kg twice daily P.O. (group 6)
[6] = 10 mg/kg twice daily P.O. (group 6), day 12
[7] = 10 mg/kg twice daily P.O. (group 6), day 14

CNC(=O)c1[nH]c(C(=O)NC2CCC2)cc1O[C@@H](C)c1ccccc1 (stereo in doubt) [Example 101, N^5-cyclobutyl-N^2-methyl-3-(1-phenylethoxy)-1H-pyrrole-2,5-dicarboxamide]
day on which paw volume noticeably increased [1]: ~14 days
effect on hind paw volume [1]: less effective at preventing an increase in paw volume over the course of the study; also recorded: performed similarly to GSK620
average overall clinical score at plateau (3 mg/kg twice daily P.O. (group 5), around day 18): 10
animals exhibiting signs of disease (3 mg/kg twice daily P.O. (group 5), day 12): Three animals
animals exhibiting disease [2]: 5/8
animals with a clinical score of 2 in one hind limb [2]: 1/8
animals exhibiting disease [3]: all animals
animals with clinical scores of at least 2 in one or more hind limbs [3]: 2/8
animals with a score of 4 in one hind limb and a score of 3 in the other hind limb [4]: 2/8
animals with scores of 4 in each hind limb [4]: 6/8
paw volume increase at plateau relative to day 0 (3 mg/kg twice daily P.O. (group 5), plateau at days 18-19): approximately 90%
Average animal paw volume percent change (3 mg/kg, Day 0, left hind paw (L)): 0.00%
Animal paw volume Day 0 L (3 mg/kg, Day 0, left paw, individual animals): 1.36 mL and 1.31 mL (2×) and 1.32 mL (2×) and 1.35 mL and 1.37 mL and 1.34 mL
Average animal paw volume percent change (3 mg/kg, Day 0, right hind paw (R)): 0.00%
Animal paw volume Day 0 R (3 mg/kg, Day 0, right paw, individual animals): 1.38 mL and 1.32 mL (2×) and 1.34 mL (3×) and 1.31 mL and 1.35 mL
Average animal paw volume percent change (3 mg/kg, Day 6, left hind paw (L)): 1.09%
Animal paw volume Day 6 L (3 mg/kg, Day 6, left paw, individual animals): 1.36 mL (2×) and 1.32 mL (2×) and 1.40 mL and 1.31 mL and 1.37 mL and 1.35 mL
Average animal paw volume percent change (3 mg/kg, Day 6, right hind paw (R)): 1.23%
Animal paw volume Day 6 R (3 mg/kg, Day 6, right paw, individual animals): 1.38 mL and 1.33 mL and 1.35 mL and 1.40 mL and 1.36 mL (2×) and 1.32 mL and 1.34 mL
Average animal paw volume percent change (3 mg/kg, Day 12, left hind paw (L)): 5.80%
Animal paw volume Day 12 L (3 mg/kg, Day 12, left paw, individual animals): 1.38 mL and 1.32 mL and 1.39 mL (3×) and 1.42 mL and 1.37 mL and 1.63 mL
Average animal paw volume percent change (3 mg/kg, Day 12, right hind paw (R)): 5.01%
Animal paw volume Day 12 R (3 mg/kg, Day 12, right paw, individual animals): 1.40 mL and 1.43 mL and 1.38 mL (2×) and 1.46 mL and 1.44 mL and 1.36 mL and 1.39 mL
Average animal paw volume percent change (3 mg/kg, Day 13, left hind paw (L)): 15.11%
Animal paw volume Day 13 L (3 mg/kg, Day 13, left paw, individual animals): 1.62 mL and 1.53 mL and 1.50 mL and 1.54 mL and 1.38 mL and 1.86 mL and 1.43 mL and 1.41 mL
Average animal paw volume percent change (3 mg/kg, Day 13, right hind paw (R)): 9.28%
Animal paw volume Day 13 R (3 mg/kg, Day 13, right paw, individual animals): 1.42 mL (2×) and 1.50 mL and 1.41 mL and 1.47 mL and 1.40 mL and 1.68 mL and 1.39 mL
Average animal paw volume percent change (3 mg/kg, Day 14, left hind paw (L)): 27.04%
Animal paw volume Day 14 L (3 mg/kg, Day 14, left paw, individual animals): 1.67 mL and 1.68 mL (2×) and 1.64 mL and 1.59 mL and 2.01 mL and 1.63 mL (2×)
Average animal paw volume percent change (3 mg/kg, Day 14, right hind paw (R)): 19.52%
Animal paw volume Day 14 R (3 mg/kg, Day 14, right paw, individual animals): 1.57 mL and 1.52 mL and 1.41 mL and 1.87 mL and 1.50 mL and 2.04 mL and 1.43 mL (2×)
Average animal paw volume percent change (3 mg/kg, Day 15, left hind paw (L)): 39.96%
Animal paw volume Day 15 L (3 mg/kg, Day 15, left paw, individual animals): 1.72 mL and 1.70 mL and 1.91 mL and 1.65 mL and 2.44 mL and 2.06 mL and 1.74 mL and 1.68 mL
Average animal paw volume percent change (3 mg/kg, Day 15, right hind paw (R)): 43.85%
Animal paw volume Day 15 R (3 mg/kg, Day 15, right paw, individual animals): 1.66 mL and 1.62 mL and 2.31 mL and 1.71 mL and 2.41 mL and 2.02 mL and 1.99 mL and 1.64 mL
Average animal paw volume percent change (3 mg/kg, Day 18, left hind paw (L)): 87.19%
Animal paw volume Day 18 L (3 mg/kg, Day 18, left paw, individual animals): 2.40 mL and 2.65 mL and 2.62 mL and 2.44 mL (2×) and 2.70 mL and 2.47 mL and 2.22 mL
Average animal paw volume percent change (3 mg/kg, Day 18, right hind paw (R)): 89.41%
Animal paw volume Day 18 R (3 mg/kg, Day 18, right paw, individual animals): 2.21 mL and 2.56 mL and 2.65 mL and 2.37 mL and 2.70 mL and 2.55 mL and 2.50 mL and 2.71 mL
Average animal paw volume percent change (3 mg/kg, Day 19, left hind paw (L)): 98.39%
Animal paw volume Day 19 L (3 mg/kg, Day 19, left paw, individual animals): 2.51 mL and 2.85 mL and 2.75 mL and 2.50 mL and 2.71 mL and 2.60 mL and 2.43 mL and 2.79 mL
Average animal paw volume percent change (3 mg/kg, Day 19, right hind paw (R)): 94.99%
Animal paw volume Day 19 R (3 mg/kg, Day 19, right paw, individual animals): 2.21 mL and 2.91 mL and 2.63 mL and 2.37 mL and 2.68 mL and 2.80 mL and 2.49 mL and 2.76 mL
Average animal paw volume percent change (3 mg/kg, Day 21, left hind paw (L)): 100.54%
Animal paw volume Day 21 L (3 mg/kg, Day 21, left paw, individual animals): 2.49 mL and 3.01 mL and 2.76 mL and 2.51 mL and 2.68 mL and 2.64 mL and 2.41 mL and 2.87 mL
Average animal paw volume percent change (3 mg/kg, Day 21, right hind paw (R)): 94.48%
Animal paw volume Day 21 R (3 mg/kg, Day 21, right paw, individual animals): 2.23 mL and 2.91 mL and 2.61 mL and 2.34 mL and 2.69 mL and 2.77 mL (2×) and 2.47 mL
average overall clinical score at plateau [5]: 7
day on which paw volume increased [5]: ~14 days
effect on hind paw volume [5]: Paw volume increases were delayed; also recorded: more effective at controlling paw volume
paw volume relative to CIA + vehicle (group 2) [5]: significantly decreased relative to group 2 on days 19 and 21 (both paws, p<0.05)
animals exhibiting signs of disease [6]: 3/8
animals with a score of 2 in one hind limb [6]: one animal
animals exhibiting disease (10 mg/kg twice daily P.O. (group 6), day 13): 4/8
animals with a score of 3 in one or more hind limbs [7]: 3/8
animals with a score of 4 in a hind limb [7]: 1/8
animals exhibiting disease (10 mg/kg twice daily P.O. (group 6), day 15): 7/8
animals with scores of 4 in one or more hind limbs (10 mg/kg twice daily P.O. (group 6), day 18): 4/8
animals exhibiting disease (10 mg/kg twice daily P.O. (group 6), day 19): all animals
